Results: PubChem BioAssay (NCI)
Where “and” joins values, the source holds several entries; their conditions need not be identical. Equal values may be shown once.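 1) Cells in 96-well plates. 2) Compound, 48 h, 5 concentrations. 3) Linear interpolation between surrounding doses. 4) Unreached endpoint = highest concentration. Abbreviation: GI50, concentration required for 50% inhibition of growth. At the TGI there is no net growth.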

Experiments:
Experiment in all cases: DTP human tumour cell line panel, 48 h
[1] = system: MDA-MB-468 breast
[2] = system: CCRF-CEM leukemia
[3] = system: SF-295 CNS
[4] = system: SN12C renal
[5] = system: HCC-2998 colon
[6] = system: SF-539 CNS
[7] = system: HS 578T breast
[8] = system: UACC-62 melanoma
[9] = system: RXF 393 renal
[10] = system: OVCAR-5 ovarian
[11] = system: NCI-H23 lung

| Structure (SMILES) | GI50 [1] | TGI [1] | further results |
| --- | --- | --- | --- |
| COc1ccc(CNc2c3ccccc3nc3ccccc23)cc1F | 1.86 µM | 4.81 µM |  |
| NC(=O)c1cc(I)ccc1NC(=O)/C=C/c1ccccc1 | 0.732 µM | 47.1 µM |  |
| COc1ccc(/C=C\c2cc(OC)c(OC)c(OC)c2)cc1OCC(=O)O | 49.3 µM | > 100 µM |  |
| Nc1c(C(=O)Nc2ccccn2)sc2nc3c(cc12)C(=O)CCC3 | 0.269 µM | 67.3 µM |  |
| COc1ccc(-c2cc(=O)oc3c4c(ccc23)OCN(Cc2ccc(F)cc2)C4)cc1 | 15.7 µM | 36.3 µM |  |
| COc1nc(=O)n(C2C=CC(=O)O2)cc1F (configuration not stated) | 1.93 µM | 9.1 µM |  |
| COc1cc(/C=C2\CCCCC3=C2N=C2SC(C)=CN2C3c2cc(OC)c(OC)c(OC)c2)cc(OC)c1OC (configuration not stated) | 0.185 µM | > 100 µM |  |
| O=c1[nH]c(-c2cccc(F)c2)cc2cc(F)ccc12 | 1.89 µM | > 100 µM |  |
| CC[C@]1(O)C[C@H]2CN(CCc3c([nH]c4ccccc34)C(C(=O)OC)(c3cc4c(cc3OC)N(C)[C@H]3[C@@](O)(C(=O)OC)[C@H](OC(C)=O)[C@]5(CC)[C@@H]6C[C@@H]6CN6CC[C@]43[C@@H]65)C2)C1 (some centres not stated) | 0.00285 µM | 0.00917 µM |  |
| Cc1cccc(NC2=C(Cl)C(=O)c3nc(C)ccc3C2=O)c1 | 1.27 µM | 2.89 µM |  |
| CCOC(=O)c1c(C)c2c(n1Cc1ccccc1)CSCC2=O | 23.3 µM | > 100 µM |  |
| C[C@H](CCOc1cccc(CC(=O)O)c1)N(Cc1cccc(C(F)(F)F)c1Cl)CC(c1ccccc1)c1ccccc1 | 6.73 µM | 24 µM |  |
| CCN(Cc1c(F)cccc1OC)c1ccc(CO)c(Cl)c1 | 0.0285 µM | 0.144 µM |  |
| NC(N)=Nc1nc2ccccc2o1 | > 100 µM | > 100 µM |  |
| NNc1ncnc2nc[nH]c12 | 5.79 µM | > 100 µM |  |
| C=C(C)[C@@H]1CC[C@]2(CN)CC[C@]3(C)[C@H](CC[C@@H]4[C@@]5(C)CCCNC(C)(C)[C@@H]5CC[C@]43C)[C@@H]12 | 1.75 µM | 3.52 µM |  |
| CN(C)CCN1CCC(Cc2ccccc2)CC1 | > 80 µM | > 80 µM |  |
| C=CC12CCN(CC1)C(C(O)c1ccnc3ccc(OC)cc13)C2 (configuration not stated) | 57.4 µM | > 100 µM |  |
| O=C(Nc1ncc(Cc2cccc(C(F)(F)F)c2)s1)c1ccc2c(c1)OCCO2 | 0.251 µM |  |  |
| COC(=O)/C=C/c1cc(OC(C)=O)c2c(c1)C(C(=O)OC)C(c1ccc(OC(C)=O)c(OC(C)=O)c1)O2 (configuration not stated) | 1.2 µM | 17.8 µM |  |
| Brc1ccc(/C=C/c2n(Cc3ccc4ccccc4c3)c3ccccc3[n+]2Cc2ccc3ccccc3c2)cc1 | 1.34 µM | 2.73 µM | GI50 [2]: 0.519 µM; TGI [2]: > 100 µM; GI50 [3]: 1.4 µM; TGI [3]: 2.73 µM; GI50 [4]: 1.64 µM; TGI [4]: 3.03 µM; GI50 [5]: 1.49 µM; TGI [5]: 2.83 µM; GI50 [6]: 1.67 µM; TGI [6]: 3.04 µM; GI50 [7]: 1.48 µM; TGI [7]: 3.87 µM; GI50 [8]: 1.53 µM; TGI [8]: 2.9 µM; GI50 [9]: 1.35 µM; TGI [9]: 2.64 µM; GI50 [10]: 1.35 µM; TGI [10]: 2.66 µM; GI50 [11]: 1.33 µM; TGI [11]: 2.68 µM |
| CCN(CCNS(C)(=O)=O)c1ccc(N)c(C)c1 | 2.11 µM | 5.64 µM |  |
| OC(c1cc2cc(Cl)ccc2c2cc(C(F)(F)F)ccc12)C1CCCCN1 (configuration not stated) | 1.66 µM | 3.2 µM |  |
| N#CC(I)CS(=O)(=O)c1ccccc1 (configuration not stated) | 3.55 µM | 14.1 µM |  |
| CCCCCCn1c(-c2ccc(C(=O)O/N=C(\N)c3ccc4c(c3)OCO4)cc2)nc(-c2ccccc2)c1-c1ccccc1 | 2.11 µM | 5.62 µM |  |
| CCn1cc(-c2ccnc3[nH]c(-c4cccc(CN(C)C)c4)cc23)c(-c2ccc(NC(=O)N(C)C)cc2)n1 | 0.0504 µM and 0.282 µM | 16.7 µM and > 10 µM |  |
| Nc1nc(Cl)nc2c1ncn2C1CC(O)C(CO)O1 (configuration not stated) | 56.6 µM | > 100 µM |  |
| CNCCCNc1ccnc2cc(Cl)ccc12 | 12.7 µM | 33.5 µM |  |
| O=C(Nc1nc(-c2c[nH]c3ccccc23)cs1)c1n[nH]c(=O)c2ccccc12 | 77.9 µM | > 100 µM |  |
